According to patent US20260183242A1, “FORMULATIONS COMPRISING A COMBINATION OF ACID-NEUTRALIZING POLYMERIC AND NON-POLYMERIC SUBSTANCES FOR ORAL ADMINISTRATION OF ACTIVE AGENTS” (Entera Bio Ltd., priority 2023, published 2026):
Read-outs that look alike come from different tables or passages of the source.

Assays:
[1] = cited from earlier work
[2] = pH upon addition of test substance to 0.1 M HCl solution (pH 1.2), pH meter; type: physicochemical
Experimental: The solution pH was determined using an MP-103 pH-meter (MRC, Israel) equipped with ELC-10-00 electrode (MRC, Israel) or with a thin electrode HI1083 (HANNA instruments Inc.), shortly after dissolution and up to 26 hours later in order to ensure that the pH remained stable. The highest pH value obtained during the experimental time period was recorded in order to compare the acid-neutralizing capacity of each substance.
SNAC and the basic polymers sodium alginate, sodium carboxymethylcellulose in non-crosslinked (Na-CMC) and crosslinked (croscarmellose sodium, CCS) forms, and sodium starch glycolate (SSG) were dissolved in various volumes of 0.1 M HCl solution (pH 1.2) at concentrations of 1, 2, 4, 10, 20, 50, 100 and 150 mg/ml, and the solution pH was determined using an MP-103 pH-meter (MRC, Israel) equipped with ELC-10-00 electrode (MRC, Israel), as described in the Materials and Methods section hereinabove.
In order to obtain a beneficial rise in pH with a reduced loss of the active form of the absorption enhancer, the effect of various concentrations of different polymers containing carboxylate groups (sodium alginate, sodium starch glycolate, sodium carboxymethylcellulose, and croscarmellose sodium) on pH upon addition to a 0.1 M HCl solution (pH 1.2) was also evaluated. FIG. 3A presents pH values determined using an MP-103 pH-meter (MRC, Israel) equipped with ELC-10-00 electrode (MRC, Israel) and FIG. 3B presents pH values determined using an MP-103 pH-meter (MRC, Israel) equipped with a thin electrode HI1083 (HANNA instruments Inc.).

pepsin = assay: Proteolysis of hPTH (1-34) by pepsin at various pH values; type: in vitro ADME; conditions: 150 μg/ml pepsin, 37° C., 3 minutes; media pH 2-7
Experimental: The effect of pH on peptide proteolysis by pepsin was determined by incubating 13.5 μg/ml human parathyroid hormone (1-34) (hPTH (1-34)) with 150 μg/ml pepsin, at various pH values, and determining the percentage of hPTH (1-34) which remained. The amount of hPTH (1-34) remaining upon addition to 150 μg/ml pepsin at 37° C. was determined in media with different pH values, followed by immediate (10 second) vortex and centrifugation for 3 minutes at 4° C., 4000 RCF. The following media were used: simulated gastric fluid (pH 2), prepared from 0.01 M HCl and NaCl; phthalate buffer (pH 4 or 5); and phosphate buffer (pH 6 or 7).

[3] = In vivo pig model: absorption of active agent from SNAC/SSG tablets with or without small proton-accepting agent; set-up: species or system mini-pigs; conditions: both sexes, minipig; for Cmax: mini-pigs, preliminary data
Experimental: The effect of combination of SNAC, sodium starch glycolate (SSG) as an exemplary alkaline polymer and a small molecule proton-accepting agent (Sodium carbonate, arginine and/or Sodium Decanoate (C10)) on absorption of a therapeutically active agent was assessed in an in vivo pig model, which allows testing of orally administered unit dosage forms with conventional dimensions that are applicable also in humans. The following proteinaceous therapeutically active agents were tested: lixisenatide, octreotide, desmopressin, salmon calcitonin, PTH (1-34), leuprolide.
All formulation constituents were in a dry powder form and mixed geometrically using mortar and pestle. Thereafter, round flat tablets were prepared from the mixes using a punch and dye and dental manual press.
The obtained tablets were administered at monitored conditions with the aid of endoscope into the stomachs of 2 male and 2 female mini-pigs (about 45 kg) for each tested group on different visits. Pigs were deprived of food the night before the experiments and during the experiment and deprived of water an hour before the experiment and during the experiment.
Blood samples were taken from the jugular vein through an indwelling cannula at predetermined time points during the first hour post-dose (which reflects the absorption phase). Plasma was separated and the concentration of the tested model molecules in plasma was quantified using a suitable technique.
hPTH (1-34) was quantified using a commercially available Elisa kit for the determination of hPTH (1-34) in plasma or cell culture media (Quidel Corp. Athens, OH, USA; Cat #60-3900).
Octreotide was quantified using a commercially available Elisa kit for the determination of octreotide in plasma or cell culture media (BMA Biomedicals, Augst, Switzerland. Cat #S-1341).
Formulations containing the same therapeutically active agents were also formulated with 11% SSG and typically included about 0.3-0.5% by weight of the active agent, 85-90% by weight SNAC, and magnesium stearate as a lubricant (about 1% by weight), and the total weight of the tablet was 90-95 mg.

[4] = drug alone, without absorption enhancer; cited from earlier work

CCNC(=O)[C@@H]1CCCN1C(=O)[C@H](CCCNC(=N)N)NC(=O)[C@H](CC(C)C)NC(=O)[C@@H](CC(C)C)NC(=O)[C@H](Cc1ccc(O)cc1)NC(=O)[C@H](CO)NC(=O)[C@H](Cc1c[nH]c2ccccc12)NC(=O)[C@H](Cc1c[nH]cn1)NC(=O)[C@@H]1CCC(=O)N1 [Leuprolide, leuprolide]
T1/2 (IV half-life) ([1]; in vivo, iv): about 3 hours

O=C(O)CCCCCCCNC(=O)c1ccccc1O [SNAC, sodium 8-N-(2-hydroxybenzoyl)aminocaprylate]
pH 5 minutes after dissolution ([2]; 10 mg/ml SNAC added to HCl solution (pH 1.2)): about 1.5 | pH 5 minutes after dissolution ([2]; 20 mg/ml SNAC added to HCl solution (pH 1.2)): 6.5 | pH 5 minutes after dissolution ([2]; 100 mg/ml SNAC added to HCl solution (pH 1.2)): about 7.5

NC(=O)CC[C@@H]1NC(=O)[C@H](Cc2ccccc2)NC(=O)[C@H](Cc2ccc(O)cc2)NC(=O)CCSSC[C@@H](C(=O)N2CCC[C@H]2C(=O)N[C@H](CCCN=C(N)N)C(=O)NCC(N)=O)NC(=O)[C@H](CC(N)=O)NC1=O [desmopressin]
T1/2 (IV half-life) ([1]; in vivo, iv): 3 to 5 h

CC[C@H](C)[C@H](NC(=O)[C@H](CCC(=O)O)NC(=O)[C@H](CO)NC(=O)[C@@H](NC(=O)[C@@H](N)CO)C(C)C)C(=O)N[C@@H](CCC(N)=O)C(=O)N[C@@H](CC(C)C)C(=O)N[C@@H](CCSC)C(=O)N[C@@H](Cc1cnc[nH]1)C(=O)N[C@@H](CC(N)=O)C(=O)N[C@@H](CC(C)C)C(=O)NCC(=O)N[C@@H](CCCCN)C(=O)N[C@@H](Cc1cnc[nH]1)C(=O)N[C@@H](CC(C)C)C(=O)N[C@@H](CC(N)=O)C(=O)N[C@@H](CO)C(=O)N[C@@H](CCSC)C(=O)N[C@@H](CCC(=O)O)C(=O)N[C@@H](CCCN=C(N)N)C(=O)N[C@H](C(=O)N[C@@H](CCC(=O)O)C(=O)N[C@@H](Cc1c[nH]c2ccccc12)C(=O)N[C@@H](CC(C)C)C(=O)N[C@@H](CCCN=C(N)N)C(=O)N[C@@H](CCCCN)C(=O)N[C@@H](CCCCN)C(=O)N[C@@H](CC(C)C)C(=O)N[C@@H](CCC(N)=O)C(=O)N[C@@H](CC(=O)O)C(=O)N[C@H](C(=O)N[C@@H](Cc1cnc[nH]1)C(=O)N[C@@H](CC(N)=O)C(=O)N[C@@H](Cc1ccccc1)C(=O)O)C(C)C)C(C)C [hPTH (1-34), teriparatide]
pH at which proteolysis by pepsin was inhibited (pepsin): ≥ 6 | T1/2 (IV half-life) ([1]; intravenous): about 5 minutes | AUC(0-t) ([3]; AUClast): 0.164 ng·h/mL | AUC(0-t) ([3]; mean AUClast): 0.0978 ng·h/mL

C[C@@H](O)[C@@H]1NC(=O)[C@H](CCCCN)NC(=O)[C@@H](Cc2c[nH]c3ccccc23)NC(=O)[C@H](Cc2ccccc2)NC(=O)[C@@H](NC(=O)[C@H](N)Cc2ccccc2)CSSC[C@@H](C(=O)N[C@H](CO)[C@@H](C)O)NC1=O [octreotide]
T1/2 (IV half-life) ([1]; intravenous): about 1.5 hours | Cmax ([3]; octreotide 0.3-0.5%, SNAC 85-90%, about 11% SSG, magnesium stearate, no PAA, read-out: mean Cmax): 2.09 ng/mL | Cmax ([3]; octreotide, SSG 11% by weight formulation further including sodium decanoate (C10), read-out: Cmax): 2.94 ng/mL

CC[C@H](C)[C@H](NC(=O)[C@H](Cc1ccccc1)NC(=O)[C@H](CC(=O)O)NC(=O)[C@H](CCCNC(=N)N)NC(=O)[C@H](C)NC(=O)[C@H](C)NC(=O)[C@H](CC(C)C)NC(=O)[C@H](CC(N)=O)NC(=O)[C@H](CC(=O)O)NC(=O)[C@H](CC(C)C)NC(=O)[C@@H](NC(=O)[C@@H](NC(=O)[C@H](CC(N)=O)NC(=O)[C@H](CCSC)NC(=O)[C@H](CCC(=O)O)NC(=O)[C@H](CC(=O)O)NC(=O)[C@H](CO)NC(=O)[C@H](Cc1ccccc1)NC(=O)[C@H](CO)NC(=O)CNC(=O)[C@H](CC(=O)O)NC(=O)CNC(=O)[C@@H](N)Cc1c[nH]cn1)[C@@H](C)O)[C@@H](C)CC)C(=O)N[C@@H](CC(N)=O)C(=O)N[C@@H](Cc1c[nH]c2ccccc12)C(=O)N[C@@H](CC(C)C)C(=O)N[C@H](C(=O)N[C@@H](CCC(N)=O)C(=O)N[C@H](C(=O)N[C@@H](CCCCN)C(=O)N[C@H](C(=O)N[C@H](C(=O)N[C@@H](CC(=O)O)C(=O)O)[C@@H](C)O)[C@@H](C)CC)[C@@H](C)O)[C@@H](C)CC [teduglutide]
oral (PO) bioavailability [4]: negligible

lixisenatide
T1/2 (IV half-life) ([1]; in vivo, iv): about 3 hours

salmon calcitonin
T1/2 (IV half-life) ([1]; in vivo, iv): 1 to 1.5 h
